Reference: patent publication US9242981B2, “Fused pyrazole derivatives as novel ERK inhibitors” (Merck Sharp & Dohme Corp., priority 2010, dated 2016)

Assays:
ERK protein = ERK protein (Mus musculus, UniProt P63085); experiment: TdF (Temperature Dependence Fluorescence, thermal shift) assay for ERK; type: binding; conditions: Table 2; 3 μM ERK protein
Excerpt: The SAR (Structure Activity Relationship) for ERK ligands covered by this invention was interrogated using the TdF (Temperature Dependence Fluorescence) assay or best known as thermal shift assay. (M. W. Pantoliano, et al., “High-density miniaturized thermal shift assays as a general strategy for drug discovery,” J. Biomol. Screen 6 (2001) 429-440) The TdF assay was mainly conducted in the 96-well based CHROMO-4 real time fluorescence plate reader (BioRad). The Sypro Orange (Sigma-Aldrich), environmentally sensitive fluorescence dye, was used to monitor the protein folding-unfolding transition. Protein-ligand binding was gauged by the change (or shift) in the unfolding transition temperature (ΔTm) acquired at protein alone with respect to protein in the presence of ligand of interest.
Compound of interest was first prepared in DMSO stock (typical concentration: 10 mM). […] Final percentage of DMSO resided in the sample was 2%. The sample plate was heated from 30° C. to 90° C. with thermal ramping rate of 1° C./min. The fluorescence signals were acquired with excitation and emission wavelengths centered at 490 and 560 nm respectively. The instrument thermal stability was ±0.2° C. The melting temperatures (Tm) for ERK protein under aforementioned conditions occurred at […] and 64.8±0.2° C. respectively.
The derivation of TdF-based ligand binding affinity constant (Kd) followed closely those previously formulated by Brandts and Lin. (J. F. Brandts, L.-N. Lin, “Study of strong to ultratight protein interactions using differential scanning calorimetry,” Biochemistry 29 (1990) 6927-6940). In brief, the binding constant of the ligand at the Tm is expressed as below:
[formula] where T0 is the midpoint of unfolding for unliganded protein and Tm is the midpoint of unfolding in presence of ligand. [LTm] is free ligand at Tm. The ΔHu and ΔCpu are the enthalpy of unfolding and heat capacity change of unfolding for the protein respectively. Following algorithm derived by Winsor and coworker, the T0, ΔHu and ΔCpu can be determined separately from nonlinear regression fitting the protein alone melting curve:
[formula] where F(T) is the observed fluorescence intensity at any temperature T, Yn, and Yu are the predicted fluorescence intensities for fully folded and unfolded protein, respectively; mn and mu are slope correction for changes in Yn and Yu with respect to changes in temperature (analogously replace T0 with Tm in the above equation for liganded protein to yield Tm). (Mayhood, T. W., Windsor, W. T., “Ligand binding affinity determined by temperature-dependent circular dichroism: Cyclin-dependent kinase 2 inhibitors,” Analytical Biochemistry 345 (2005) 187-197).
[formula] where ΔHL (T) is the van't Hoff enthalpy of ligand binding at temperature T and ΔCpL is the heat capacity upon ligand binding. For simplicity, the ΔCpL and ΔHL (T) were set to zero and -7 kcal/mol respectively. […]

Mouse ERK2 protein = Mouse ERK2 protein (Mus musculus (Mouse), UniProt P63085); experiment: Coupled MEK1/ERK2 IMAP assay or Active ERK2 IMAP assay; type: biochemical
Mouse ERK2 protein, sequence (P63085 whole entry): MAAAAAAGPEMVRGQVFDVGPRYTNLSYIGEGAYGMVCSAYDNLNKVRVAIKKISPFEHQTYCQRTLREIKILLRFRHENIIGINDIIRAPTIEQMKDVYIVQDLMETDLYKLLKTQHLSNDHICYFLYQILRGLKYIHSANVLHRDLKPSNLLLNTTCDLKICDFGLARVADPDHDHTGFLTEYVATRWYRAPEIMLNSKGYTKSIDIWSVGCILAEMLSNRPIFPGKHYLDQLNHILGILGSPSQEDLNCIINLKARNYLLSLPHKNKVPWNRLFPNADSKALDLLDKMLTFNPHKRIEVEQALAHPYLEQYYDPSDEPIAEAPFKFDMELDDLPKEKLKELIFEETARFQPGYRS

ERK protein, sequence (P63085 2-358 limits assumed): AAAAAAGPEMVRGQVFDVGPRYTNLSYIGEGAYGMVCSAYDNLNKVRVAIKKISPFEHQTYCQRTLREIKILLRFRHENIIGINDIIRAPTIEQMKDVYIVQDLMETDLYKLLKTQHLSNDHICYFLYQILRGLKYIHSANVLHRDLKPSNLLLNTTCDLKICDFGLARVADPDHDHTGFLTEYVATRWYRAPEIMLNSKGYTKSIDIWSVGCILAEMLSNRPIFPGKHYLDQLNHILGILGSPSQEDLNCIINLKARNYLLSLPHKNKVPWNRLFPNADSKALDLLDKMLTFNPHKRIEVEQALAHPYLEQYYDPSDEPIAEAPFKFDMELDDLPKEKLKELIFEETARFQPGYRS

Structure (SMILES)	Kd (ERK protein) [nM]	IC50 (Mouse ERK2 protein; Table 2, 30 μM ATP) [nM]	IC50 (Mouse ERK2 protein; Table 1, class symbols, 30 μM ATP) [nM]
Cc1ccccc1[C@@H]1CN(C)C[C@H]1NC(=O)N1CCc2[nH]nc(-c3ccncc3)c2C1 [Compound 46, 1,4,6,7-tetrahydro-N-[1-methyl-4(R)-(2-methylphenyl)-3(S)-pyrrolidinyl]-3-(4-pyridinyl)-5H-pyrazolo[4,3-c]pyridine-5-carboxamide]	0.7	0.89	
O=C(N[C@@H]1CCCN(Cc2ccccc2F)C1)N1CCc2[nH]nc(-c3ccncc3)c2C1 [Compound 48, N-[1-[(2-fluorophenyl)methyl]-3(R)-piperidinyl]-1,4,6,7-tetrahydro-3-(4-pyridinyl)-5H-pyrazolo[4,3-c]pyridine-5-carboxamide]	0.37	0.65	
COc1cccc(F)c1CN1CCC[C@@H](NC(=O)N2CCc3[nH]nc(-c4ccncc4)c3C2)C1 [Compound 53, N-[1-[(2-fluoro-6-methoxyphenyl)methyl]-3(R)-piperidinyl]-1,4,6,7-tetrahydro-3-(4-pyridinyl)-5H-pyrazolo[4,3-c]pyridine-5-carboxamide]	0.15	3.8	< 20
O=C(N[C@@H]1CCCN(Cc2c(F)cccc2F)C1)N1CCc2[nH]nc(-c3ccncc3)c2C1 [Compound 54, N-[1-[(2,6-difluorophenyl)methyl]-3(R)-piperidinyl]-1,4,6,7-tetrahydro-3-(4-pyridinyl)-5H-pyrazolo[4,3-c]pyridine-5-carboxamide]	0.51	1.97	
O=C(N[C@@H]1CCCN(Cc2csc3ccccc23)C1)N1CCc2[nH]nc(-c3ccncc3)c2C1 [Compound 57, N-[1-(benzo[b]thien-3-ylmethyl)-3(R)-piperidinyl]-1,4,6,7-tetrahydro-3-(4-pyridinyl)-5H-pyrazolo[4,3-c]pyridine-5-carboxamide]	0.3	0.5	
Cc1ccsc1CN1CCC[C@@H](NC(=O)N2CCc3[nH]nc(-c4ccncc4)c3C2)C1 [Compound 58, 1,4,6,7-tetrahydro-N-[1-[(3-methyl-2-thienyl)methyl]-3(R)-piperidinyl]-3-(4-pyridinyl)-5H-pyrazolo[4,3-c]pyridine-5-carboxamide]	0.25	1.98	
Cc1ccc(CN2CCC[C@@H](NC(=O)N3CCc4[nH]nc(-c5ccncc5)c4C3)C2)s1 [Compound 59, 1,4,6,7-tetrahydro-N-[1-[(5-methyl-2-thienyl)methyl]-3(R)-piperidinyl]-3-(4-pyridinyl)-5H-pyrazolo[4,3-c]pyridine-5-carboxamide]	1.51	1.78	
Cn1cc(CN2CCC[C@@H](NC(=O)N3CCc4[nH]nc(-c5ccncc5)c4C3)C2)c2ccccc21 [Compound 60, 1,4,6,7-tetrahydro-N-[1-[(1-methyl-1H-indol-3-yl)methyl]-3(R)-piperidinyl]-3-(4-pyridinyl)-5H-pyrazolo[4,3-c]pyndine-5-carboxamide]	1.12	1.24	
Cn1c(CN2CCC[C@@H](NC(=O)N3CCc4[nH]nc(-c5ccncc5)c4C3)C2)cc2ccccc21 [Compound 61, 1,4,6,7-tetrahydro-N-[1-[(1-methyl-1H-indol-2-yl)methyl]-3(R)-piperidinyl]-3-(4-pyridinyl)-5H-pyrazolo[4,3-c]pyridine-5-carboxamide]	0.47	0.3	
CC(=O)n1cc(CN2CCC[C@@H](NC(=O)N3CCc4[nH]nc(-c5ccncc5)c4C3)C2)c2ccccc21 [Compound 62, N-[1-[(1-acetyl-1H-indol-3-yl)methyl]-3(R)-piperidinyl]-1,4,6,7-tetrahydro-3-(4-pyridinyl)-5H-pyrazolo[4,3-c]pyridine-5-carboxamide]	2.1	2.01	
O=C(N[C@@H]1CCCN(Cc2ccccc2Cl)C1)N1CCc2[nH]nc(-c3ccncc3)c2C1 [Compound 69, N-[1-[(2-chlorophenyl)-methyl]-3(R)-piperidinyl]-1,4,6,7-tetrahydro-3-(4-pyridinyl)-5H-pyrazolo[4,3-c]pyridine-5-carboxamide]	0.31	2.4	
Cc1cccc(C)c1CN1CCC[C@@H](NC(=O)N2CCc3[nH]nc(-c4ccncc4)c3C2)C1 [Compound 71, N-[1-[(2,6-dimethylphenyl)-methyl]-3(R)-piperidinyl]-1,4,6,7-tetrahydro-3-(4-pyridinyl)-5H-pyrazolo[4,3-c]pyridine-5-carboxamide]	0.15	2.07	
Cc1noc(-c2ccccc2)c1CN1CCC[C@@H](NC(=O)N2CCc3[nH]nc(-c4ccncc4)c3C2)C1 [Compound 75, 1,4,6,7-tetrahydro-N-[1-[(3-methyl-5-phenyl-4-isoxazolyl)methyl]-3(R)-piperidinyl]-3-(4-pyridinyl)-5H-pyrazolo[4,3-c]pyridine-5-carboxamide]	1.36		
Cc1onc(-c2ccccc2)c1CN1CCC[C@@H](NC(=O)N2CCc3[nH]nc(-c4ccncc4)c3C2)C1 [Compound 76, 1,4,6,7-tetrahydro-N-[1-[(5-methyl-3-phenyl-4-isoxazolyl)methyl]-3(R)-piperidinyl]-3-(4-pyridinyl)-5H-pyrazolo[4,3-c]pyridine-5-carboxamide]	1.55		
Cc1cc(-c2n[nH]c3c2CN(C(=O)NC2CCCN(Cc4c(C)cccc4C)C2)CC3)ccn1 (centres unmarked) [Compound 84, N-[1-[(2,6-dimethylphenyl)-methyl]-3-piperidinyl]-1,4,6,7-tetrahydro-3-(2-methyl-4-pyridinyl)-5H-pyrazolo[4,3-c]pyridine-5-carboxamide]	0.13	6.3	
Cc1cc(-c2n[nH]c3c2CN(C(=O)N[C@@H]2CCCN(Cc4cccc5ccccc45)C2)CC3)ccn1 [Compound 100, 1,4,6,7-tetrahydro-3-(2-methyl-4-pyridinyl)-N-[1-(1-naphthalenylmethyl)-3(R)-piperidinyl]-5H-pyrazolo[4,3-c]pyridine-5-carboxamide]	0.4	3.7	
O=C(N[C@@H]1CCCN(Cc2csc3ccccc23)C1)N1CCc2[nH]nc(-c3ccc4nccn4c3)c2C1 [Compound 109, N-[1-(benzo[b]thien-3-ylmethyl)-3(R)-piperidinyl]-1,4,6,7-tetrahydro-3-(imidazo[1,2-a]pyridin-6-yl)-5H-pyrazolo[4,3-c]pyridine-5-carboxamide]	0.14	3	
Cc1cccc(C)c1CN1CCC[C@@H](NC(=O)N2CCc3[nH]nc(-c4ccc5nccn5c4)c3C2)C1 [Compound 110]	0.03	5.3	
O=C(N[C@@H]1CCCN(Cc2cccc3ccccc23)C1)N1CCc2[nH]nc(-c3ccc4nccn4c3)c2C1 [Compound 112, 1,4,6,7-tetrahydro-3-imidazo[1,2-a]pyridin-6-yl-N-[1-(1-naphthalenylmethyl)-3(R)-piperidinyl]-5H-pyrazolo[4,3-c]pyridine-5-carboxamide]	0.12	3.1	
COc1cccc(F)c1CN1CCC[C@@H](NC(=O)N2CCc3[nH]nc(-c4ccc5nccn5c4)c3C2)C1 [Compound 113, N-[1-[(2-fluoro-6-methoxyphenyl)methyl]-3(R)-piperidinyl]-1,4,6,7-tetrahydro-3-(imidazo[1,2-a]pyridin-6-yl)-5H-pyrazolo[4,3-c]pyridine-5-carboxamide]	0.03	4.2	
COc1cccc(F)c1CN1CC(NC(=O)N2CCc3[nH]nc(-c4ccnc(C)c4)c3C2)CC(C(F)(F)F)C1 (centres unmarked) [Compound 123, N-[1-[(2-fluoro-6-methoxyphenyl)methyl]-5-(trifluoromethyl)-3-piperidinyl]-1,4,6,7-tetrahydro-3-(2-methyl-4-pyridinyl)-5H-pyrazolo[4,3-c]pyridine-5-carboxamide]	0.06	4.3	
